Assay results published in ChEMBL document CHEMBL5726782, “N-pyrrolidinyl,N′-pyrazolyl-urea, thiourea, guanidine and cyanoguanidine compounds as TrkA kinase inhibitors” (2018).

Biological target: High affinity nerve growth factor receptor (Homo sapiens, UniProt P04629)
Assay: Kinase Binding Assay: TrkA binding activity was determined in a TrkA LanthaScreen™ Eu Kinase Binding Assay. 5 nM His-tagged recombinant human TrkA (6HIS tagged cytoplasmic domain from Invitrogen, Catalog No. PV3144) was incubated with 4 nM Alexa-Fluor® Tracer 236 (Invitrogen Cat. No. PV5592), 2 nM biotinylated anti-His (Invitrogen Cat. No. PV6090), and 2 nM europium-labeled Streptavidin (Invitrogen Cat. No. PV5899), in buffer (25 mM MOPS, pH 7.5, 5 mM MgCl2, 0.005% Triton X-100). Three fold serial dilutions of compounds of the invention in DMSO were added to a final percentage of 2% DMSO. After 60-minute incubation at 22° C., the reaction was measured using the EnVision mutlimode plate reader (PerkinElmer) via TR-FRET dual wavelength detection at […]. The percent of control was calculated using a ratiometric emission factor.

High affinity nerve growth factor receptor, sequence (P04629 whole entry, the tested form may be a part): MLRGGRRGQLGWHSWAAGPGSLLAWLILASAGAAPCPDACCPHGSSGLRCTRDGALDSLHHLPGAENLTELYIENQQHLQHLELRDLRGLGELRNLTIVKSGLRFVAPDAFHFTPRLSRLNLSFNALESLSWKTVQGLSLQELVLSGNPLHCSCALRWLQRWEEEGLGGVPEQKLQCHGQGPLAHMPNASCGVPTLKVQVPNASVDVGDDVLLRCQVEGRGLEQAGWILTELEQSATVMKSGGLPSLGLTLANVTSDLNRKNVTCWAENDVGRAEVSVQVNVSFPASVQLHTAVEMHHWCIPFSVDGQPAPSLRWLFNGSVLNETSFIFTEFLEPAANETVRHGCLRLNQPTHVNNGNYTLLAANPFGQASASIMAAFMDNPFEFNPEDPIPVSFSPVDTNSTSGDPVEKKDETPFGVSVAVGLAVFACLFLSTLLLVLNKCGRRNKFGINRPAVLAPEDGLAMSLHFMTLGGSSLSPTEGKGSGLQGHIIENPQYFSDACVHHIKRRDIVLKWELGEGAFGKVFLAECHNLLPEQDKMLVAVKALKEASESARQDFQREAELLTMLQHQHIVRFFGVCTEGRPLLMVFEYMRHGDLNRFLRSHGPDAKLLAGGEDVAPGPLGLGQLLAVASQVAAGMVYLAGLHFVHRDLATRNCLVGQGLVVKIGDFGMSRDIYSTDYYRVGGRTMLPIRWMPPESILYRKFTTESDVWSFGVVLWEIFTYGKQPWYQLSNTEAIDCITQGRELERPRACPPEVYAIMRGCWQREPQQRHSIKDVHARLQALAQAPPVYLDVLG

IC50: < 100 nM
SMILES: COCCN1C[C@@H](NC(=O)Nc2c(C)c(-c3cncc(OC)c3)nn2-c2ccccc2)[C@H](c2ccc(F)c(F)c2)C1
